Test results as given in patent US20240270821A1, “GIP/GLP1/GCG TRI-RECEPTOR AGONISTS AND USES THEREOF” (priority 2023, published 2024).
Starred links: 1 amine or outer side, 2 acyl side, 3 side chain; linkers in the order of their positions; H or OH if unused. Non-standard residues stand in square brackets, D forms with d. Groups on a side chain read outwards from the residue. No end group written: not given here. *: point of attachment. C20 diacid = O=C(O)CCCCCCCCCCCCCCCCCCC(=O)*; C18 diacid = O=C(O)CCCCCCCCCCCCCCCCC(=O)*; γGlu = O=C(O)[C@H](CCC(=O)[*:2])N[*:1]; αMe4Pal = C[C@](N)(Cc1ccncc1)C(=O)O; αMeY = C[C@](N)(Cc1ccc(O)cc1)C(=O)O; 4Pal = N[C@@H](Cc1ccncc1)C(=O)O; αMeL = CC(C)C[C@](C)(N)C(=O)O; Orn = NCCC[C@H](N)C(=O)O; Dab = NCC[C@H](N)C(=O)O; AEEA = NCCOCCOCC(=O)O; Aib = CC(C)(N)C(=O)O

T1: hGIPR (Homo sapiens, UniProt P48546)
T1 sequence (P48546 22-466): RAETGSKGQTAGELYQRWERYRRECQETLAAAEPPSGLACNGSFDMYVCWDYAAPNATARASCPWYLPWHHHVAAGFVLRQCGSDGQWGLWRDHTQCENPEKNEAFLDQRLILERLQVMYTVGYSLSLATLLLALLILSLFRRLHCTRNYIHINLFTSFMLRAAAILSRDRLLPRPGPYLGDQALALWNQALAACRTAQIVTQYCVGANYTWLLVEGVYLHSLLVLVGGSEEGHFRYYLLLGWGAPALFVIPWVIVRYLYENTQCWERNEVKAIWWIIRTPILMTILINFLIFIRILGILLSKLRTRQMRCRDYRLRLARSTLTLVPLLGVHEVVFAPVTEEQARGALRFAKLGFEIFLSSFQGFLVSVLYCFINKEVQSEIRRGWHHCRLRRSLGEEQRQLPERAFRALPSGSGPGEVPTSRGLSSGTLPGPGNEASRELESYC

T2: human GIP receptor (human) (UniProt P48546)
T2 sequence (looked up): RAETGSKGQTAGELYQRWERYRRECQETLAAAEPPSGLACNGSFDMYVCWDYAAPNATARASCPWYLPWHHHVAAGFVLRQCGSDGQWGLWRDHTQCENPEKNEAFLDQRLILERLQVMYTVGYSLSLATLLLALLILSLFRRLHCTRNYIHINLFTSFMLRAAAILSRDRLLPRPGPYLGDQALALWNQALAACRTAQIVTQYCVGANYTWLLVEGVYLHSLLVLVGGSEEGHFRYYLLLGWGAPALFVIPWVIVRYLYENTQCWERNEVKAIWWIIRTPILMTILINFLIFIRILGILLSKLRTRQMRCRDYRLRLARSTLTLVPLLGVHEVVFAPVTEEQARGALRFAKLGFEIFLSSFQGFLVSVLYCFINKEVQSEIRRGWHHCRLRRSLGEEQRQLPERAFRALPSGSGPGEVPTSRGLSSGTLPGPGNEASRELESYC


How the values were obtained:
human GcgR = human GcgR (Homo sapiens, UniProt P47871); assay: Functional cAMP activity in the presence of 1% HSA; type: cell-based; conditions: read-out: cAMP Rel EC50, hGcgR
hGLP-1R [1] = biological target: T3, hGLP-1R (Homo sapiens, UniProt P43220); assay: Functional cAMP activation in the presence of 0.1% casein (no HSA); type: cell-based; conditions: in the presence of 0.1% casein (no HSA); geometric mean; read-out: Relative cAMP EC50, hGLP-1R;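 also: intracellular cAMP rise after 30 min at 37 °C read by HTRF, normalized between buffer only (0%) and maximal control ligand (100%), four-parameter variable-slope fit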
hGcgR = hGcgR (Homo sapiens, UniProt P47871); assay: as above; type: cell-based; conditions: in the presence of 0.1% casein (no HSA); geometric mean; read-out: Relative cAMP EC50, hGcgR;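 also: intracellular cAMP rise after 30 min at 37 °C, read by HTRF against a cAMP standard curve, scaled from buffer only (0%) to maximal control ligand response (100%)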
hGLP-1R [2] = biological target: T3, hGLP-1R; assay: Functional cAMP activity in the presence of 1% HSA; type: cell-based; conditions: read-out: cAMP Rel EC50, hGLP-1R
human GLP1-R = human GLP1-R (Homo sapiens, UniProt P43220); assay: GLP1-R internalization assay in HEK293 cells; type: cell-based; conditions: for EC50: HEK293 cells expressing SNAP-GLP-1R, read-out: GLP1R Internalization EC50; for Internalization % TOP: normalized to maximum concentration of GLP-1 (100%)
hGIPR [3] = biological target: T1, hGIPR; assay: Functional cAMP activity in the presence of 1% HSA; type: cell-based; conditions: read-out: cAMP Rel EC50, hGIPR
hGIPR [4] = biological target: T1, hGIPR; assay: Functional cAMP activation in the presence of 0.1% casein (no HSA); type: cell-based; conditions: in the presence of 0.1% casein (no HSA); geometric mean; read-out: Relative cAMP EC50, hGIPR;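 as to Relative cAMP EC50, hGIPR: intracellular cAMP rise after 30 min at 37 °C read by HTRF against a standard curve, scaled between buffer alone (0%) and top control ligand concentration (100%), four-parameter fit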;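 as to Relative cAMP EC50, hGcgR: intracellular cAMP rise after 30 min at 37 °C, read by HTRF against a cAMP standard curve, scaled from buffer only (0%) to maximal control ligand response (100%)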
[5] = biological target: human glucagon receptor (human) (UniProt P47871); assay: cell-based or functional assay
[6] = biological target: human GLP-1R (SNAP-GLP-1R expressed in HEK293 cells) (human) (UniProt P43220); assay: cell-based or functional assay
hGLP-1R [7] = biological target: T3, hGLP-1R; assay: cell-based or functional assay
[8] = biological target: T2, human GIP receptor (human); assay: cell-based or functional assay

Chain of human GcgR (P47871 26-477): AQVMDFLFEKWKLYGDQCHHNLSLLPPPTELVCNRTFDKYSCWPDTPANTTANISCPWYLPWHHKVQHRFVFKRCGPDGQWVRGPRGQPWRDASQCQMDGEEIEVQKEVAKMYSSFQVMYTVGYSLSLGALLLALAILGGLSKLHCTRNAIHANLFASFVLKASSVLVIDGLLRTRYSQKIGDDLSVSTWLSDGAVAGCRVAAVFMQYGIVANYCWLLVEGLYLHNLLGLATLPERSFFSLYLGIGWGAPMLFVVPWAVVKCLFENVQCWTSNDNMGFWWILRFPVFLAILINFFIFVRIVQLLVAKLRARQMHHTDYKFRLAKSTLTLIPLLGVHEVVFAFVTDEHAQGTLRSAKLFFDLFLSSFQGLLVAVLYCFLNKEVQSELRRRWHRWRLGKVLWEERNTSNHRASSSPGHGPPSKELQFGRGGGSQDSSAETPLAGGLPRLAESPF
Chain of hGcgR (P47871 26-477): as above
Chain of human glucagon receptor (human) (P47871 26-477): as above
T3 sequence (P43220 24-463): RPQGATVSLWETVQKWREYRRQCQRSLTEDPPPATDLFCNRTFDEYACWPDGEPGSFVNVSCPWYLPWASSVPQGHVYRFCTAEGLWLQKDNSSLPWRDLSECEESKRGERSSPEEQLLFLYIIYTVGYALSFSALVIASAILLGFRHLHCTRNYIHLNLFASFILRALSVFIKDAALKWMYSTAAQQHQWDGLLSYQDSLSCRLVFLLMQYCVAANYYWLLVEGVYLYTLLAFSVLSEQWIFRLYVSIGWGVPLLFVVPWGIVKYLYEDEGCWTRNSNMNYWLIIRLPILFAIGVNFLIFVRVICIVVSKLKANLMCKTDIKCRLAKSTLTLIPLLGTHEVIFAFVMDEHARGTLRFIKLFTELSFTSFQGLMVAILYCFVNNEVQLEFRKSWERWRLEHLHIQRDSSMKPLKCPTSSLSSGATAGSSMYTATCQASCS
Chain of human GLP-1R (SNAP-GLP-1R expressed in HEK293 cells) (human) (P43220 24-463): as above
Chain of human GLP1-R (P43220 24-463): as above

| Molecule | EC50 (human GcgR) [nM] | EC50 (hGLP-1R [1]) [nM] | EC50 (hGcgR) [nM] | EC50 (hGLP-1R [2]) [nM] | EC50 (human GLP1-R) [nM] | Internalization % TOP (human GLP1-R) [%] | EC50 (hGIPR [3]) [nM] | EC50 (hGIPR [4]) [nM] | GLP1R Internalization EC50 [6] [nM] | Internalization % TOP [6] [%] | other results |
| --- | --- | --- | --- | --- | --- | --- | --- | --- | --- | --- | --- |
| Y[Aib]QGTFTSDFS[Dab][αMeL]LDKK([AEEA-γGlu-C18 diacid])AQ[Aib]AFIEYLLEGGPSSGAPPPGGS-NH2 [Example 67] | 781 | 4.07 | 3.7 | 683 | 50.9 | 31.1 | 73.3 | 0.34 |  |  |  |
| Y[Aib]QGTFTSDFS[Orn][αMeL]LDKK([AEEA-AEEA-γGlu-C18 diacid])AQ[Aib]AFIEYLLE[dA]GPSSGEPPPSEG-NH2 [Example 116] | 882 | 7.83 | 3.96 | 401 | 80.7 | 46.2 | 40.4 | 0.382 |  |  |  |
| Y[Aib]QGTFTSDFS[Orn][αMeL]LDKK([AEEA-AEEA-γGlu-C18 diacid])AQ[Aib]AFIEYLLE[dA]GPSSG[4Pal]PPPSGS-NH2 [Example 254] | 767 | 3.08 | 4.9 | 265 | 31.9 | 47.8 | 21.4 | 0.121 |  |  |  |
| Y[Aib]QGTFTSDFS[Orn][αMeL]LDKK([AEEA-γGlu-C18 diacid])AQ[Aib]AFIEYLLEGGPSSGAPPPSEG-NH2 [Example 50] | 1040 | 4.65 | 4.25 | 1110 | 30.1 | 31.1 | 69.6 | 0.29 |  |  |  |
| Y[Aib]QGTFTSD[4Pal]SK[αMeL]LDKK([AEEA-γGlu-C20 diacid])AQ[Aib]AFIEYLLAGGPSSGEPPPSGE-NH2 [Example 28] | 1550 | 3.68 | 12.6 | 686 | 81.8 | 76.2 | 63.8 | 0.255 |  |  |  |
| Y[Aib]QGTFTSD[4Pal]SQ[αMeL]LD[Orn]K([γGlu-γGlu-C18 diacid])AQ[αMe4Pal]QFIE[αMeY]LIEGGPSSGEPPPSGSEE-NH2 [Example 1026] | 2080 | 1.77 | 6.32 | 299 | 47.4 | 80 | 61.3 | 0.308 |  |  |  |
| Y[Aib]QGTFTSDYSI[αMeL]LDKQAAK([AEEA-AEEA-γGlu-C20 diacid])QFVEWLIA[Aib]GPSSGEPPPAEG-NH2 [Example 334] |  |  |  |  |  |  |  |  | 28.3 | 96.8 | Relative cAMP EC50 [5]: 6.77 nM; cAMP Rel EC50 (1% HSA) [5]: 2070 nM; Relative cAMP EC50 (hGLP-1R [7]): 0.707 nM; cAMP Rel EC50 (1% HSA) (hGLP-1R [7]): 171 nM; Relative cAMP EC50 [8]: 0.223 nM; cAMP Rel EC50 (1% HSA) [8]: 72.1 nM |
| YXQGTFTSDYSKXLDKKAQXAFIEYLLEGGESSGAPPPSGS (synthetic construct; SITE 2: note = 2-Aminoisobutyric Acid; SITE 13: note = alpha-methyl-leucine; SITE 17: note = Lysine is chemically modified through conjugation of the epsilon-amino group of the Lysine side chain with (2-[2-(2-Amino-ethoxy)-ethoxy]-acetyl)-(gamma-Glu)-CO-(CH2) 16-CO2H; SITE 20: n) [Example 358] |  |  |  |  |  |  |  |  | 21.5 | 83.1 | Relative cAMP EC50 [5]: 2.78 nM; cAMP Rel EC50, nM (1% HSA) [5]: 876 nM; Relative cAMP EC50 (hGLP-1R [7]): 2.31 nM; cAMP Rel EC50, nM (1% HSA) (hGLP-1R [7]): 492 nM; Relative cAMP EC50 [8]: 0.182 nM; cAMP Rel EC50, nM (1% HSA) [8]: 38.8 nM |
| YXQGTFTSDFSXXLDKKAQXAFIEWLLEGGPSSGAPPPSGE (synthetic construct; SITE 2: note = 2-Aminoisobutyric Acid; SITE 12: note = L-ornithine; SITE 13: note = alpha-methyl-leucine; SITE 17: note = Lysine is chemically modified through conjugation of the epsilon-amino group of the Lysine side chain with (2-[2-(2-Amino-ethoxy)-ethoxy]-acetyl)-(gamma-Glu)) [Example 119] |  |  |  |  |  |  |  |  | 73.5 | 43.4 |  |
| YXQGTXTSDXSILLDKKAQXAFIEYLEEGGPSSGAPPPSGTGE (synthetic construct; SITE 2: note = 2-Aminoisobutyric Acid; SITE 6: note = alpha-methyl-2-fluoro-L-phenylalanine; SITE 10: note = 3-(4-Pyridyl)-L-alanine; SITE 17: note = Lysine is chemically modified through conjugation of the epsilon-amino group of the Lysine side chain with (gamma-Glu)2-CO-(CH2)1) [Example 510] |  |  |  |  |  |  |  |  | 11.8 | 113 |  |
| YXQGTXTSDXXIXLDXKAQXEFIEXLVEGGPSSGAPPPSGS (synthetic construct; SITE 2: note = 2-Aminoisobutyric Acid; SITE 6: note = alpha-methyl-2-fluoro-L-phenylalanine; SITE 10: note = 3-(4-Pyridyl)-L-alanine; SITE 11: note = alpha-methyl-L-serine; SITE 13: note = alpha-methyl-leucine; SITE 16: note = L-ornithine; SITE 17: note = Lysine is chemically mo) [Example 694] |  |  |  |  |  |  |  |  | 21.8 | 97.3 |  |
| YXQGTXTSDXXIXLDXKAQXEFIEXLIEGGPSSGAPPPSGSE (synthetic construct; SITE 2: note = 2-Aminoisobutyric Acid; SITE 6: note = alpha-methyl-2-fluoro-L-phenylalanine; SITE 10: note = 3-(4-Pyridyl)-L-alanine; SITE 11: note = alpha-methyl-L-serine; SITE 13: note = alpha-methyl-leucine; SITE 16: note = L-ornithine; SITE 17: note = Lysine is chemically mo) [Example 712] |  |  |  |  |  |  |  |  | 35.3 | 109 |  |
